Measured values as given in patent publication US8415351B2 (priority 2007, dated 2013).
pEC50, pIC50: −log10 of the molar value. Like-named read-outs stand apart in the source and are kept apart here.

Assays:
[1] = test system: genotype 1b-Con1 subgenomic replicon cell line; test: microbe, parasite or virus in culture; assay type: cell-based, HCV; settings: read-out: EC50 1b
[2] = target: T1, HCV polymerase 1A (Δ21 NS5B, H77) (Hepatitis C virus genotype 1a, UniProt P27958); test: biochemical
T1 construct: 20 to 50 nM Δ21 NS5B
Summary of the method: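 Radiometric assay with Δ21 NS5B (H77): 20 μM CTP, 20 μM ATP, 1 μM ^3H-UTP, 5 nM template RNA, 2–4 h at room temperature. RNA precipitated with spermine, filter-captured and counted. IC50 from non-linear fit of retained cpm vs inhibitor concentration (tight-binding equation).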

[3] = test system: genotype 1a-H77 subgenomic replicon cell line; test: microbe, parasite or virus in culture; assay type: cell-based, HCV; settings: read-out: EC50 1a
[4] = target: T2, HCV polymerase 1B (Δ21 NS5B, BK) (Hepatitis C virus genotype 1b, UniProt P26663); test: biochemical
T2 construct: 20 to 50 nM Δ21 NS5B
Summary of the method: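 Δ21 NS5B (genotype 1b, BK […]) preincubated 15 min RT with inhibitor, 2 mM MnCl2, pH 7.4, 60–125 μM GTP; started with 20 μM CTP/ATP, 1 μM 3H-UTP, 5 nM template RNA, run 2–4 h RT. Spermine-precipitated RNA filter-captured, scintillation counted; IC50 from tight-binding (Morrison) fit.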

T2 sequence (P26663 2420-2989, stated change not applied): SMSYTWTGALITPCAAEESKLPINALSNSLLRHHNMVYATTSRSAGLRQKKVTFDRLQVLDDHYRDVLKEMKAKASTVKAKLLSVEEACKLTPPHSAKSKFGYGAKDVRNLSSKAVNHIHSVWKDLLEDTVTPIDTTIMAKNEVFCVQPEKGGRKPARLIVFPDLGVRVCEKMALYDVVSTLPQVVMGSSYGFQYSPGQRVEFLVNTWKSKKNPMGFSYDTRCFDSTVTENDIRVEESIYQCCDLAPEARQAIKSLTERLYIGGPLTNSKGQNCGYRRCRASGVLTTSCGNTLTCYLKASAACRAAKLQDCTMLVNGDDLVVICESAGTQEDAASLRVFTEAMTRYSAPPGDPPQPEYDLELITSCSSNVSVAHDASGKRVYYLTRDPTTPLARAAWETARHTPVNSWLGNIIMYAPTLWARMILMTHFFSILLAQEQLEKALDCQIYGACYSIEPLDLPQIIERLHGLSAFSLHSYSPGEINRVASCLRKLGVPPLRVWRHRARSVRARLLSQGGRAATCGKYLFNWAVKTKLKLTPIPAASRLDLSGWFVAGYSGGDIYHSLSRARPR
T1 sequence (P27958 2421-2990, stated change not applied): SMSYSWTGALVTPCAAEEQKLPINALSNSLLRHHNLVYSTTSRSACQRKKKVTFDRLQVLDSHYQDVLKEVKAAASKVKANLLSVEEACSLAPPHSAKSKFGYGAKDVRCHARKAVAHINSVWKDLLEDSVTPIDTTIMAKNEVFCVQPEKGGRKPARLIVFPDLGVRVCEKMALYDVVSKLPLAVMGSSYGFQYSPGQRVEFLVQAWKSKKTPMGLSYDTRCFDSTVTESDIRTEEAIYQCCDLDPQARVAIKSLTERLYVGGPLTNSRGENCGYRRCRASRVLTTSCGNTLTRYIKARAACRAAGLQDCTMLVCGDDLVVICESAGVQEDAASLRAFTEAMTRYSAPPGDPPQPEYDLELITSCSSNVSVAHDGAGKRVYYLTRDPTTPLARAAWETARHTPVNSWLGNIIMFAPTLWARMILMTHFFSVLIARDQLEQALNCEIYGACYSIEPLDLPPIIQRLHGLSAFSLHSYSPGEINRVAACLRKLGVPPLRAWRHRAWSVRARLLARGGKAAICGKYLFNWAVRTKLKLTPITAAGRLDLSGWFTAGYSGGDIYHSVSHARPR

| Compound | pEC50 ([1]; Hepatitis C virus) | pIC50 ([2]; IC50 1a) | pEC50 ([3]; Hepatitis C virus) | pIC50 [4] | pEC50 ([1]; genotype 1b-Con1 replicon, luciferase reporter) | pIC50 ([2]; read-out: IC50 1a) | pEC50 ([3]; genotype 1a-H77 replicon, luciferase reporter) | pIC50 ([4]; HCV polymerase 1b, read-out: IC50 1b) |
| --- | --- | --- | --- | --- | --- | --- | --- | --- |
| CC(C)(C)OC(=O)N(Cc1csc(NC(=O)c2cc(N3CCC(=O)NC3=O)cc(C(C)(C)C)c2O)c1)S(C)(=O)=O [IA-L3-1.98, tert-butyl (5-(3-tert-butyl-5-(2,4-dioxotetrahydropyrimidin-1(2H)-yl)-2-hydroxybenzamido)thiophen-3-yl)methyl(methylsulfonyl)carbamate] | 6.00 to 7.00 | < 6.00 | < 6.00 | 6.00 to 7.00 |  |  |  |  |
| COc1c(C(=O)N[C@H]2CC[C@H](NS(C)(=O)=O)CC2)cc(N2CCC(=O)NC2=O)cc1C(C)(C)C [IA-L3-1.103, 3-tert-butyl-5-(2,4-dioxotetrahydropyrimidin-1(2H)-yl)-2-methoxy-N-((1r,4r)-4-(methylsulfon amido)cyclohexyl)benzamide] |  |  |  |  | < 6.00 | 6.00 to 7.00 | < 6.00 | < 6.00 |
| CC(C)(C)c1cc(N2CCC(=O)NC2=O)cc(C(=O)Nc2nccs2)c1O [IA-L3-1.104, 3-tert-butyl-5-(2,4-dioxotetrahydropyrimidin-1(2H)-yl)-2-hydroxy-N-(thiazol-2-yl)benzamide] | < 6.00 | < 6.00 | < 6.00 | 6.00 to 7.00 |  |  |  |  |
| CC(C)(C)c1cc(C(=O)Nc2ccc(NS(C)(=O)=O)cc2)cc(N2CCC(=O)NC2=O)c1 [IA-L3-1.105, 3-tert-butyl-5-(2,4-dioxotetrahydropyrimidin-1(2H)-yl)-N-(4-(methylsulfonamido)phenyl)benzamide] | < 6.00 | 6.00 to 7.00 | < 6.00 | 7.00 to 8.00 |  |  |  |  |
| COc1c(C(=O)Nc2ccc(N)cc2)cc(N2CCC(=O)NC2=O)cc1C(C)(C)C [IA-L3-1.107, N-(4-aminophenyl)-3-tert-butyl-5-(2,4-dioxotetrahydropyrimidin-1(2H)-yl)-2-methoxy benzamide] | < 6.00 | < 6.00 | < 6.00 | < 6.00 |  |  |  |  |
| CCc1cc(N2CCC(=O)NC2=O)cc(C(=O)Nc2ccc(NS(C)(=O)=O)cc2)c1OC [IA-L3-1.112, 5-(2,4-dioxotetrahydropyrimidin-1(2H)-yl)-3-ethyl-2-methoxy-N-(4-(methylsulfonamido)phenyl)benzamide] | 6.00 to 7.00 | 6.00 to 7.00 | < 6.00 | 6.00 to 7.00 |  |  |  |  |
| CCc1cc(N2CCC(=O)NC2=O)cc(C(=O)Nc2ccc(NS(C)(=O)=O)cc2)c1O [IA-L3-1.113, 5-(2,4-dioxotetrahydropyrimidin-1(2H)-yl)-3-ethyl-2-hydroxy-N-(4-(methylsulfonamido)phenyl)benzamide] | < 6.00 | < 6.00 | < 6.00 | < 6.00 |  |  |  |  |
| CCNC(=O)CN1C(=O)CCN(c2cc(C(=O)Nc3ccc(N(CC(=O)NCC)S(C)(=O)=O)cc3)c(OC)c(C(C)(C)C)c2)C1=O [IA-L3-1.115, 3-tert-butyl-5-(3-(2-(ethylamino)-2-oxoethyl)-2,4-dioxotetrahydropyrimidin-1(2H)-yl)-N-(4-(N-(2-(ethylamino)-2-oxoethyl)methylsulfonamido)phenyl)-2-methoxybenzamide] | < 6.00 | < 6.00 | < 6.00 | < 6.00 |  |  |  |  |
| COc1cc(NS(C)(=O)=O)ccc1NC(=O)c1cc(N2CCC(=O)NC2=O)cc(C(C)(C)C)c1O [IA-L3-1.119, 3-tert-butyl-5-(2,4-dioxotetrahydropyrimidin-1(2H)-yl)-2-hydroxy-N-(2-methoxy-4-(methylsulfonamido)phenyl)benzamide] | 7.00 to 8.00 | 7.00 to 8.00 | 6.00 to 7.00 | > 8.00 |  |  |  |  |
| COc1c(C(=O)Nc2cccc(CNS(C)(=O)=O)c2)cc(N2CCC(=O)NC2=O)cc1C(C)(C)C [IA-L3-1.120, 3-tert-butyl-5-(2,4-dioxotetrahydropyrimidin-1(2H)-yl)-2-methoxy-N-(3-(methylsulfonamidomethyl)phenyl)benzamide] | < 6.00 | 6.00 to 7.00 | < 6.00 | 6.00 to 7.00 |  |  |  |  |
| COc1ccc(OC)c(S(=O)(=O)Nc2ccc(NC(=O)c3cc(N4CCC(=O)NC4=O)cc(C(C)(C)C)c3OC)cc2)c1 [IA-L3-1.121, 3-tert-butyl-N-(4-(2,5-dimethoxyphenylsulfonamido)phenyl)-5-(2,4-dioxotetrahydro-pyrimidin-1(2H)-yl)-2-methoxybenzamide] | 6.00 to 7.00 | 6.00 to 7.00 | < 6.00 | 6.00 to 7.00 |  |  |  |  |
| CCCC(=O)OCN(c1ccc(NC(=O)c2cc(N3CCC(=O)NC3=O)cc(C(C)(C)C)c2OC)cc1)S(C)(=O)=O [IA-L3-1.123, (N-(4-(3-tert-butyl-5-(2,4-dioxotetrahydropyrimidin-1(2H)-yl)-2-methoxybenzamido)phenyl)methylsulfonamido)methyl butyrate] | 7.00 to 8.00 | < 6.00 | 6.00 to 7.00 | < 6.00 |  |  |  |  |
| CC(C)(C)c1cc(N2CCC(=O)NC2=O)cc(C(=O)Nc2ccc3ncccc3c2)c1O [IA-L3-2.1, 3-tert-butyl-5-(2,4-dioxotetrahydropyrimidin-1(2H)-yl)-2-hydroxy-N-(quinolin-6-yl)benzamide] | < 6.00 | < 6.00 | < 6.00 | 6.00 to 7.00 |  |  |  |  |
| COc1c(C(=O)Nc2ccc3c(c2)CC(=O)N3)cc(N2CCC(=O)NC2=O)cc1C(C)(C)C [IA-L3-2.2, 3-tert-butyl-5-(2,4-dioxotetrahydropyrimidin-1(2H)-yl)-2-methoxy-N-(2-oxoindolin-5-yl)benzamide] | < 6.00 | 6.00 to 7.00 | < 6.00 | 6.00 to 7.00 |  |  |  |  |
| COc1c(C(=O)Nc2ccc3c(c2)CCC(=O)N3)cc(N2CCC(=O)NC2=O)cc1C(C)(C)C [IA-L3-2.4, 3-tert-butyl-5-(2,4-dioxotetrahydropyrimidin-1(2H)-yl)-2-methoxy-N-(2-oxo-1,2,3,4-tetra hydroquinolin-6-yl)benzamide] | < 6.00 | < 6.00 | < 6.00 | < 6.00 |  |  |  |  |
| CC(C)(C)c1cc(N2CCC(=O)NC2=O)cc(C(=O)Nc2ccc3c(c2)CS(=O)(=O)C3)c1O [IA-L3-2.5, 3-tert-butyl-N-(2,2-dioxo-1,3-dihydrobenzo[c]thiophen-5-yl)-5-(2,4-dioxotetrahydropyrimidin-1(2H)-yl)-2-hydroxybenzamide] | < 6.00 | < 6.00 | < 6.00 | 6.00 to 7.00 |  |  |  |  |
| CC(C)(C)c1cc(NC(=O)c2ccc(NS(C)(=O)=O)cc2)cc(N2CCC(=O)NC2=O)c1 [IA-L4-1.1, N-(3-tert-butyl-5-(2,4-dioxotetrahydropyrimidin-1(2H)-yl)phenyl)-4-(methylsulfonamido) benzamide] | < 6.00 | 6.00 to 7.00 | < 6.00 | 6.00 to 7.00 |  |  |  |  |
| CC(C)(C)c1cc(N2CCC(=O)NC2=O)cc(NC(=O)c2ccc(NS(C)(=O)=O)cc2)c1O [IA-L4-1.3, N-(3-tert-butyl-5-(2,4-dioxotetrahydropyrimidin-1(2H)-yl)-2-hydroxyphenyl)-4-(methylsulfon amido)benzamide] | < 6.00 | 6.00 to 7.00 | < 6.00 | 6.00 to 7.00 |  |  |  |  |
| CC(C)(C)c1cc(N2CCC(=O)NC2=O)cc(NC(=O)c2ccc(CS(C)(=O)=O)cc2)c1O [IA-L4-1.4, N-(3-tert-butyl-5-(2,4-dioxotetrahydropyrimidin-1(2H)-yl)-2-hydroxyphenyl)-4-(methylsulfonylmethyl)benzamide] | < 6.00 | < 6.00 | < 6.00 | < 6.00 |  |  |  |  |
| COc1c(N(C)C(=O)c2ccc(NS(C)(=O)=O)cc2)cc(N2CCC(=O)NC2=O)cc1C(C)(C)C [IA-L4-1.7, N-(3-tert-butyl-5-(2,4-dioxotetrahydropyrimidin-1(2H)-yl)-2-methoxyphenyl)-N-methyl-4-(methylsulfonamido)benzamide] | < 6.00 | 6.00 to 7.00 | < 6.00 | < 6.00 |  |  |  |  |
| COc1c(NC(=O)c2ccccc2)cc(N2CCC(=O)NC2=O)cc1C(C)(C)C [IA-L4-1.8, N-(3-tert-butyl-5-(2,4-dioxotetrahydropyrimidin-1(2H)-yl)-2-methoxyphenyl)benzamide] | 6.00 to 7.00 | < 6.00 | < 6.00 | 6.00 to 7.00 |  |  |  |  |
| COc1cc(NS(C)(=O)=O)ccc1C(=O)Nc1cc(N2CCC(=O)NC2=O)cc(C(C)(C)C)c1OC [IA-L4-1.11, N-(3-tert-butyl-5-(2,4-dioxotetrahydropyrimidin-1(2H)-yl)-2-methoxyphenyl)-2-methoxy-4-(methylsulfonamido)benzamide] | 7.00 to 8.00 | > 8.00 | 6.00 to 7.00 | 7.00 to 8.00 |  |  |  |  |
| COc1c(NC(=O)c2ccc(NS(C)(=O)=O)cc2Cl)cc(N2CCC(=O)NC2=O)cc1C(C)(C)C [IA-L4-1.12, N-(3-tert-butyl-5-(2,4-dioxotetrahydropyrimidin-1(2H)-yl)-2-methoxyphenyl)-2-chloro-4-(methylsulfonamido)benzamide] | 6.00 to 7.00 | 7.00 to 8.00 | 6.00 to 7.00 | 7.00 to 8.00 |  |  |  |  |
| COc1c(COc2ccc(NS(C)(=O)=O)cc2)cc(N2CCC(=O)NC2=O)cc1C(C)(C)C [IA-L6-1.1, N-(4-(3-tert-butyl-5-(2,4-dioxotetrahydropyrimidin-1(2H)-yl)-2-methoxybenzyloxy)phenyl)methanesulfonamide] | 7.00 to 8.00 | 7.00 to 8.00 | 6.00 to 7.00 | 6.00 to 7.00 |  |  |  |  |
